Assays:
Jarid1B = Jarid1B (Homo sapiens (Human), UniProt Q9UGL1); test: In vitro enzyme inhibition assay for Jarid1B activity (TR-FRET); assay type: biochemical
Protocol: The ability of test compounds to inhibit the activity of Jarid1B was determined in 384-well plate format under the following reaction conditions: 0.8 nM Jarid1B, 300 nM H3K4me3-biotin labeled peptide (Anaspec cat #64357), 2 μM alpha-ketoglutaric acid in assay buffer of 50 mM HEPES, pH7.3, 0.005% Brij35, 0.5 mM TCEP, 0.2 mg/ml BSA, 50 μM sodium L-ascorbate, and 2 μM ammonium iron(II) sulfate. Reaction product was determined quantitatively by TR-FRET after the addition of detection reagent Phycolink Streptavidin-allophycocyanin (Prozyme) and Europium-anti-H3K4me or -H3K4me2 antibody (PerkinElmer) in the presence of 5 mM EDTA in LANCE detection buffer (PerkinElmer) at a final concentration of 25 nM and 1 nM, respectively.
(§1) The assay reaction was initiated by the following: 2 μl of the mixture of 900 nM H3K4me3-biotin labeled peptide and 6 μM alpha-ketoglutaric acid with 2 μl of 11-point serial diluted inhibitor in 3% DMSO was added to each well of the plate, followed by the addition of 2 μl of 2.4 nM Jarid1B to initiate the reaction. The reaction mixture was incubated at RT for 30 min, and terminated by the addition of 6 μl of 5 mM EDTA in LANCE detection buffer containing 50 nM Phycolink Streptavidin-allophycocyanin and 2 nM Europium-anti-H3K4me/H3K4me2 antibody. Plates were read by EnVisionMultilabel Reader in TR-FRET mode (excitation at 320 nm, emission at 615 nm and 665 nm) after 1 hr incubation at RT. A ratio was calculated (665/615) for each well and fitted to determine inhibition constant (IC50).

Jurkat cells = test: Jurkat (T-ALL) cell line proliferation assay (Cell-MTS Assay); assay type: cell-based; settings: Homo sapiens, 168 hr incubation, cell gives A/B enantiomer values, read-out: Cellular IC50
From the text: The Jurkat (T-ALL) cell line proliferation assay (Cell-MTS Assay) is a colorimetric cellular assay to assess the ability of KDM small molecule inhibitors to effect the proliferation of the established human acute T cell leukemia cancer cell line Jurkat.
This Cell-MTS assay is a 7-day plate-based colorimetric assay which quantifies the amount of newly generated NADH in the presence and absence of test compound. These NADH levels are used as a proxy for the quantification of cancer cell proliferation.
The established cancer cell line Jurkat with a verified p53 mutation were purchased from American Type Culture Collection (ATCC) and routinely passaged according to ATCC published protocols. For routine assay these cells were seeded at a density of 10,000 cells per 96-well. 24 hr after plating, cells received an 11-point dilution of test compound with final concentration ranges from 10 μM to 0.15 nM. Cells were incubated in the presence of compound for 168 hr at 37° C., 5% CO2. At the end of this compound incubation period, 80 μl of media is removed and 20 μL of CellTiter 96® AQueous Non-Radioactive Cell Proliferation Assay solution (Promega) is added. The cells were incubated until the OD490 reached >0.6. IC50 values are calculated using the IDBS XLfit software package and include background subtracted OD490 values and normalization to DMSO controls. Cellular proliferation IC50 values are uploaded and archived using the Chem Biography Platform.

[1] = test system: esophageal squamous cell carcinoma KYSE-150 cells; test: Cellular IC50 in KYSE-150 cells; assay type: cell-based; settings: Homo sapiens, one class given per A and B pair
From the text: Table 7 provides IC50 values of various compounds disclosed herein, tested in cellular human esophageal squamous cell carcinoma KYSE-150 cells: […]

JMJD2C = JMJD2C (Homo sapiens (Human), UniProt Q9H3R0); test: In vitro enzyme inhibition assay for JMJD2C activity (TR-FRET); assay type: biochemical
Sequence of JMJD2C (Q9H3R0 2-372): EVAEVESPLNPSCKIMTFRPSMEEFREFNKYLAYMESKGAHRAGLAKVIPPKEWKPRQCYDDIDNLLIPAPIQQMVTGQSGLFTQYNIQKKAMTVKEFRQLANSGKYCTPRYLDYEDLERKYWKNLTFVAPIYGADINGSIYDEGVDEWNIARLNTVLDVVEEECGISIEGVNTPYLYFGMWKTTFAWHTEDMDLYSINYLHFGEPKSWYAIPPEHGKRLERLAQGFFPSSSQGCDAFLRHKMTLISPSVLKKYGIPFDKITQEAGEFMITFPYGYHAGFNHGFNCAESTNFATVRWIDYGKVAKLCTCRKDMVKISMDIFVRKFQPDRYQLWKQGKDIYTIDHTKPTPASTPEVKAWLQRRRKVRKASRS
Protocol: This assay determines the ability of a test compound to inhibit JMJD2C demethylase activity. Baculovirus expressed JMJD2C (GenBank Accession #BC143571, AA 2-372) was purchased from BPS Bioscience (Cat#50105).
The ability of test compounds to inhibit the activity of JMJD2C was determined in 384-well plate format under the following reaction conditions: 0.3 nM JMJD2C, 300 nM H3K9me3-biotin labeled peptide (Anaspec cat #64360), 2 μM alpha-ketoglutaric acid in assay buffer of 50 mM HEPES, pH7.3, 0.005% Brij35, 0.5 mM TCEP, 0.2 mg/ml BSA, 50 μM sodium L-ascorbate, and 2 μM ammonium iron(II) sulfate. Reaction product was determined quantitatively by TR-FRET after the addition of detection reagent Phycolink Streptavidin-allophycocyanin (Prozyme) and Europium-anti-di-methylated histone H3 lysine 9 (H3K9me2) antibody (PerkinElmer) in the presence of 5 mM EDTA in LANCE detection buffer (PerkinElmer) at a final concentration of 50 nM and 1 nM, respectively.
as §1, with “nM H3K9me3-biotin” for “nM H3K4me3-biotin”, “DMSO were” for “DMSO was”, “of 0.9” for “of 2.4”, “nM JMJD2C” for “nM Jarid1B”, “containing 100” for “containing 50”, “nM Europium-anti-H3K9me2” for “nM Europium-anti-H3K4me/H3K4me2”

JMJD3 = JMJD3 (Homo sapiens, UniProt O15054); test: In vitro enzyme inhibition assay for JMJD3 activity (TR-FRET); assay type: biochemical
Protocol: This assay determines the ability of a test compound to inhibit JMJD3 demethylase activity. Baculovirus expressed JMJD3 (GenBank Accession #NM-001080424, AA1043-end) was purchased from BPS Bioscience (Cat#50115).
The enzymatic assay of JMJD3 activity is based upon Time Resolved-Fluorescence Resonance Energy Transfer (TR-FRET) detection. The ability of test compounds to inhibit the activity of JMJD3 was determined in 384-well plate format under the following reaction conditions: 5 nM JMJD3, 250 nM H3K27me3-biotin labeled peptide (Anaspec cat #64367), 0.4 to 2 μM α-ketoglutaric acid in assay buffer of 50 mM HEPES, pH7.3, 0.005% Brij35, 0.5 mM TCEP, 0.2 mg/ml BSA, 50 μM sodium L-ascorbate, and 5 μM ammonium iron(II) sulfate. Reaction product was determined quantitatively by TR-FRET after the addition of detection reagent Phycolink Streptavidin-allophycocyanin (Prozyme) and Europium-anti-H3K27me2 antibody (PerkinElmer) in the presence of 5 mM EDTA in LANCE detection buffer (PerkinElmer) at a final concentration of 50 nM and 1 nM, respectively.
The assay reaction was initiated by the following: […] of the mixture of 750 nM H3K27me3-biotin labeled peptide and 1.2 to 6 μM alpha-ketoglutaric acid with 2 μL of 11-point serial diluted inhibitor in 3% DMSO were added to each well of plate, followed by the addition of 2 μl of 15 nM JMJD3 to initiate the reaction. The reaction mixture was incubated at RT for 30 min, and terminated by the addition of 6 μL of 5 mM EDTA in LANCE detection buffer containing 100 nM Phycolink Streptavidin-allophycocyanin and 2 nM Europium-anti-H3K27me2 antibody. Plates were read by EnVisionMultilabel Reader in TR-FRET mode (excitation at 320 nm, emission at 615 nm and 665 nm) after 1 hr incubation at RT. A ratio from the readout of 665/615 was calculated for each well and fitted to determine inhibition constant (IC50).

[2] = Table 4, cell gives A/B enantiomer values
[3] = Table 5, one class given per A and B pair

Sequence of Jarid1B (Q9UGL1 whole entry, species assumed): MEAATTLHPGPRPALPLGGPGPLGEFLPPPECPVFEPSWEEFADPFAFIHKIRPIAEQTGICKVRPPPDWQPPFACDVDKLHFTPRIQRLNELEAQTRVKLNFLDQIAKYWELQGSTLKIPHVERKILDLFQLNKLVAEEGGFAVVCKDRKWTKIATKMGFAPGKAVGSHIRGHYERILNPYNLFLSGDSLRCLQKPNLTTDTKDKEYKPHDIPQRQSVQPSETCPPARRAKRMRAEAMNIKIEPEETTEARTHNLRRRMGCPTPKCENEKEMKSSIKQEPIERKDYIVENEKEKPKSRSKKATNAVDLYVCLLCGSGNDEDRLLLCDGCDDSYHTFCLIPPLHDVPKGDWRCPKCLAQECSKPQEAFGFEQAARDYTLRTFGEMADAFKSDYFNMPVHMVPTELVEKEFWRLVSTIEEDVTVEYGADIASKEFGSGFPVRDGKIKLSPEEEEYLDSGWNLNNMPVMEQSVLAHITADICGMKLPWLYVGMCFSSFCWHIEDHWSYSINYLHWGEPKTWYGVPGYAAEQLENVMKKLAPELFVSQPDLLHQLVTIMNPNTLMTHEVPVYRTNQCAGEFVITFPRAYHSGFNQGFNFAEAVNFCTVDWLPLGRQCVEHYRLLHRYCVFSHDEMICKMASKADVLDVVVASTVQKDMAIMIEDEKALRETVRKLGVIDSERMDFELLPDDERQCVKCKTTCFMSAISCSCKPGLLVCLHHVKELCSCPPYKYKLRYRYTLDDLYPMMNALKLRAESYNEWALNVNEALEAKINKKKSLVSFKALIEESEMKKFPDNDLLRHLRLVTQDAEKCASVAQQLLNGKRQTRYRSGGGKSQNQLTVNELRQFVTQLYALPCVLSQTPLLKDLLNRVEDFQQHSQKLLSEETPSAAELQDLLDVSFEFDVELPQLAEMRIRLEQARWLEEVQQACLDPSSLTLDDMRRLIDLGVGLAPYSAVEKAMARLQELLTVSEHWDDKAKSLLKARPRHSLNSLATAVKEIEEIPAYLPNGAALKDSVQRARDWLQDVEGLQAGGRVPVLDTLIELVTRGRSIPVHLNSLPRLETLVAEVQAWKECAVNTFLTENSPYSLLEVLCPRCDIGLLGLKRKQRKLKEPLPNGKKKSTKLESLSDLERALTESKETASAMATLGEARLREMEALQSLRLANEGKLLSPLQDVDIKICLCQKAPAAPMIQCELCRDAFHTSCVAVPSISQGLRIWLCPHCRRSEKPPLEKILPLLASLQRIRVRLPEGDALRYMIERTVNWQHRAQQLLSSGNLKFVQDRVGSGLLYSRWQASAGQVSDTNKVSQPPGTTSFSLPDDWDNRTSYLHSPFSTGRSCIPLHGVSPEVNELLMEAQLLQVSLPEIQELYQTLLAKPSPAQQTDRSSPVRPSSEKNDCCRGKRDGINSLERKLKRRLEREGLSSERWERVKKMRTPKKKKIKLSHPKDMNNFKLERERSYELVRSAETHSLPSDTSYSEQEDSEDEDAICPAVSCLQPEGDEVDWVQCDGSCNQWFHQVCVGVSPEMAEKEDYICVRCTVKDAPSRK

Cc1ccc(N(C)c2ccc3c(c2)CCN[C@@H]3CNc2cnccc2C(=O)O)cc1 [Example 1A, 3-[({(1S)-6-[methyl(4-methylphenyl)amino]-1,2,3,4-tetrahydroisoquinolyl}methyl)amino]pyridine-4-carboxylic acid]
IC50 (Jarid1B; [2]): ≤ 0.1 µM | IC50 (Jarid1B; [3]): ≤ 0.1 µM | IC50 (Jurkat cells): ≤ 0.1 µM | IC50 [1]: 1 to 10 µM | IC50 (JMJD2C; [2]): 0.1 to 1 µM | IC50 (JMJD2C; [3]): 0.1 to 1 µM

Cc1cc(OCC(F)(F)F)ccc1-c1ccc2c(c1)CCN[C@@H]2CNc1cnccc1C(=O)O [Example 2A, 3-[({(1S)-6-[2-methyl-4-(2,2,2-trifluoro-ethoxy)phenyl]-1,2,3,4-tetrahydro-isoquinolyl}methyl)amino]pyridine-4-carboxylic acid]
IC50 (Jarid1B; [2]): ≤ 0.1 µM | IC50 (Jarid1B; [3]): ≤ 0.1 µM | IC50 (Jurkat cells): 0.1 to 1 µM | IC50 [1]: > 10 µM | IC50 (JMJD3; [2]): 1 to 10 µM | IC50 (JMJD3; [3]): 1 to 10 µM | IC50 (JMJD2C; [2]): 1 to 10 µM | IC50 (JMJD2C; [3]): 1 to 10 µM

Cc1cc(OCC(F)(F)F)ccc1-c1ccc2c(c1)CCN[C@H]2CNc1cnccc1C(=O)O [Example 2B, 3-[({(1R)-6-[2-methyl-4-(2,2,2-trifluoroethoxy)phenyl]-1,2,3,4-tetrahydroisoquinolyl)methyl)amino]pyridine-4-carboxylic acid]
IC50 (Jarid1B; [2]): ≤ 0.1 µM | IC50 (Jarid1B; [3]): ≤ 0.1 µM | IC50 (Jurkat cells): 0.1 to 1 µM | IC50 [1]: > 10 µM | IC50 (JMJD3; [2]): 1 to 10 µM | IC50 (JMJD3; [3]): 1 to 10 µM | IC50 (JMJD2C; [2]): 1 to 10 µM | IC50 (JMJD2C; [3]): 1 to 10 µM

CCc1ccc(N(C)c2ccc3c(c2)CN(C)[C@@H]3CNc2cnccc2C(=O)O)cc1 [Example 19B, (S)-3-(((5-((4-ethylphenyl)(methyl)amino)-2-methylisoindolin-1-yl)methyl)amino)isonicotinic acid]
IC50 (Jarid1B; [3]): ≤ 0.1 µM | IC50 [1]: ≤ 0.1 µM | IC50 (JMJD3; [3]): 1 to 10 µM | IC50 (JMJD2C; [3]): 0.1 to 1 µM

CCCc1ccc(N(C)c2ccc3c(c2)CN(C)[C@H]3CNc2cnccc2C(=O)O)cc1 [Example 20A, (R)-3-(((2-methyl-5-(methyl (4-propylphenyl)amino)isoindolin-1-yl)methyl)amino)isonicotinic acid]
IC50 (Jarid1B; [3]): ≤ 0.1 µM | IC50 [1]: ≤ 0.1 µM | IC50 (JMJD3; [3]): 1 to 10 µM | IC50 (JMJD2C; [3]): 0.1 to 1 µM

CCCc1ccc(N(C)c2ccc3c(c2)CN(C)[C@@H]3CNc2cnccc2C(=O)O)cc1 [Example 20B, (S)-3-(((2-methyl-5-(methyl (4-propylphenyl)amino)isoindolin-1-yl)methyl)amino)isonicotinic acid]
IC50 (Jarid1B; [3]): ≤ 0.1 µM | IC50 [1]: ≤ 0.1 µM | IC50 (JMJD3; [3]): 1 to 10 µM | IC50 (JMJD2C; [3]): 0.1 to 1 µM

Cc1ccccc1-c1ccc2c(c1)CN(C)[C@H]2CNc1cnccc1C(=O)O [Example 21A, (R)-3-(((2-methyl-5-(o-tolyl)isoindolin-1-yl)methyl)amino)isonicotinic acid]
IC50 (Jarid1B; [3]): ≤ 0.1 µM | IC50 [1]: ≤ 0.1 µM | IC50 (JMJD3; [3]): 1 to 10 µM | IC50 (JMJD2C; [3]): 0.1 to 1 µM

Cc1ccccc1-c1ccc2c(c1)CN(C)[C@@H]2CNc1cnccc1C(=O)O [Example 21B, (S)-3-(((2-methyl-5-(o-tolyl)isoindolin-1-yl)methyl)amino)isonicotinic acid]
IC50 (Jarid1B; [3]): ≤ 0.1 µM | IC50 [1]: ≤ 0.1 µM | IC50 (JMJD3; [3]): 1 to 10 µM | IC50 (JMJD2C; [3]): 0.1 to 1 µM

CCc1ccccc1-c1ccc2c(c1)CN(C)[C@H]2CNc1cnccc1C(=O)O [Example 22A, (R)-3-(((5-(2-ethylphenyl)-2-methyl-isoindolin-1-yl)methyl)amino) isonicotinic acid]
IC50 (Jarid1B; [3]): ≤ 0.1 µM | IC50 [1]: ≤ 0.1 µM | IC50 (JMJD3; [3]): 1 to 10 µM | IC50 (JMJD2C; [3]): 0.1 to 1 µM

CCc1ccccc1-c1ccc2c(c1)CN(C)[C@@H]2CNc1cnccc1C(=O)O [Example 22B, (S)-3-(((5-(2-ethylphenyl)-2-methyl-isoindolin-1-yl)methyl)amino) isonicotinic acid]
IC50 (Jarid1B; [3]): ≤ 0.1 µM | IC50 [1]: ≤ 0.1 µM | IC50 (JMJD3; [3]): 1 to 10 µM | IC50 (JMJD2C; [3]): 0.1 to 1 µM

Source: patent US10059687B2, “Histone demethylase inhibitors” (CELGENE QUANTICEL RESEARCH, INC., priority 2015, dated 2018)
